Results reported in patent publication US20090111801A1, “SUBSTITUTED PYRAZINONE DERIVATIVES FOR USE AS A MEDICINE” (Janssen Pharmaceutica N.V., priority 2006, published 2009).

Legend:
[1] = molecular target: T1, hα2C receptor (Homo sapiens, UniProt P18825); assay: Radioligand binding experiment for α2C-adrenoceptor ([3H]raulwolscine, CHO cell membranes); details: [3H]raulwolscine binding; for IC50: read-out: h-α2C pIC50 (converted)
T1 construct: expressed in transfected cells; host or cells: CHO cells, stably transfected; membrane preparation
T1 sequence (P18825 1-462): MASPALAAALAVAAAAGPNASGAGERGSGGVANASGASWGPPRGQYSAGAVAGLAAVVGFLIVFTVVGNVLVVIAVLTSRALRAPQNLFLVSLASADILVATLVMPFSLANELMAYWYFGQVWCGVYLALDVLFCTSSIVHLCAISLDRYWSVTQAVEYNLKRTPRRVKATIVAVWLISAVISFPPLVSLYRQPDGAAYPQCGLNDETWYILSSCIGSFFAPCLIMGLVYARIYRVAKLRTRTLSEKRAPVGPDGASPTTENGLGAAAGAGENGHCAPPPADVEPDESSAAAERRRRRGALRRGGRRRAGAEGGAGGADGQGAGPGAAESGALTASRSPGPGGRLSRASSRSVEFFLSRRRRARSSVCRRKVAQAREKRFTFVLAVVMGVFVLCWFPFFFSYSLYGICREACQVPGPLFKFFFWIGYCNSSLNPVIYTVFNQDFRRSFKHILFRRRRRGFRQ
Protocol: (§1) The interaction of a compound of Formula (I) with α2-adrenoceptor receptors was assessed in in vitro radioligand binding experiments. In general, a low concentration of a radioligand with a high binding affinity for a particular receptor or transporter is incubated with a sample of a tissue preparation enriched in a particular receptor or transporter or with a preparation of cells expressing cloned human receptors in a buffered medium. During the incubation, the radioligand binds to the receptor or transporter. When equilibrium of binding is reached, the receptor bound radioactivity is separated from the non-bound radioactivity, and the receptor- or transporter-bound activity is counted. The interaction of the test compounds with the receptor is assessed in competition binding experiments. Various concentrations of the test compound are added to the incubation mixture containing the receptor- or transporter preparation and the radioligand. The test compound in proportion to its binding affinity and its concentration inhibits binding of the radioligand. The radioligand used for hα2A and hα2C receptor binding was [^3H]-raulwolscine.
(§2) CHO cells, stabile transfected with human adrenergic-α2A and α2C receptor cDNA, were cultured in Dulbecco's Modified Eagle's Medium (DMEM)/Nutrient mixture Ham's F12 (ratio 1:1)(Gibco, Gent-Belgium) supplemented with 10% heat inactivated fetal calf serum (Life Technologies, Merelbeke-Belgium) and antibiotics (100 IU/ml penicillin G, 100 μg/ml streptomycin sulphate, 110 μg/ml pyruvic acid and 100 μg/ml L-glutamine). One day before collection, cells were induced with 5 mM sodiumbutyrate. Upon 80-90% of confluence, cells were scraped in phosphate buffered saline without Ca^2+ and Mg^2+ and collected by centrifugation at 1500×g for 10 minutes. The cells were homogenised in Tris-HCl 50 mM using an Ultraturrax homogenizer and centrifuged for 10 minutes at 23,500×g. The pellet was washed once by resuspension and rehomogenization and the final pellet was resuspended in Tris-HCl, divided in 1 ml aliquots and stored at −70° C.
(§3) Membranes were thawed and re-homogenized in incubation buffer (glycylglycine 25 mM, pH 8.0). […] Filters were rinsed extensively with ice-cold rinsing buffer (Tris-HCl 50 mM pH 7.4). Filter-bound radioactivity was determined by scintillation counting in a Topcount (Packard, Meriden, Conn.) and results were expressed as counts per minute (cpm). Non-specific binding was determined in the presence of 1 μM oxymetazoline for the hα2A receptor and 1 μM spiroxatrine for hα2C receptor.
(§4) Data from assays in the presence of compound were calculated as a percentage of total binding measured in the absence of test compound. Inhibition curves, plotting percent of total binding versus the log value of the concentration of the test compound, were automatically generated, and sigmoidal inhibition curves were fitted using non-linear regression. The pIC50 values of test compounds were derived from individual curves.

[2] = molecular target: T2, hα2A receptor (Homo sapiens, UniProt P08913); assay: Radioligand binding experiment for α2A-adrenoceptor ([3H]raulwolscine, CHO cell membranes); details: [3H]raulwolscine binding; for IC50: read-out: h-α2A pIC50 (converted)
T2 construct: expressed in transfected cells; host or cells: CHO cells, stably transfected; membrane preparation
T2 sequence (P08913 1-465): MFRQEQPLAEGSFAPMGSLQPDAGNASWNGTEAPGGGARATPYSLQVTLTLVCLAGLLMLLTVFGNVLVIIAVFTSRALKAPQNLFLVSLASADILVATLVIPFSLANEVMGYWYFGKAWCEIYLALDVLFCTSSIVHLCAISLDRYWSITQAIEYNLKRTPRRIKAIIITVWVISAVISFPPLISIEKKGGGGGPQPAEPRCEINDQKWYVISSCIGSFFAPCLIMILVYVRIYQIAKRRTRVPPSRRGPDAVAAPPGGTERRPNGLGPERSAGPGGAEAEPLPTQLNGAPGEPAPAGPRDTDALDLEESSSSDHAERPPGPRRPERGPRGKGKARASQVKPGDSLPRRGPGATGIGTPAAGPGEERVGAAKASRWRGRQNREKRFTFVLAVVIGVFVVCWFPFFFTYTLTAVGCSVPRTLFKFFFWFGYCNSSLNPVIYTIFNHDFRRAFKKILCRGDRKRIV
Protocol: as §1, §2, §3, §4

[3] = molecular target: T3, 5HT-Transporter (Homo sapiens, UniProt P31645); assay: Binding experiment for the 5HT-transporter ([3H]paroxetine, human platelet membranes); details: [3H]paroxetine 0.5 nM; for IC50: read-out: h-5HTT pIC50 (converted)
T3 construct: Human platelet membranes (Oceanix Biosciences Corporation, Hanover, Md., USA) were thawed; tissue Oceanix Biosciences Corporation, Hanover, Md., USA; host or cells: human platelet membranes
Protocol: as §1
Human platelet membranes (Oceanix Biosciences Corporation, Hanover, Md., USA) were thawed, diluted in buffer (Tris-HCl 50 mM, 120 mM NaCl and 5 mM KCl) and quickly (max 3 s) homogenised with an Ultraturrax homogenizer. […] Incubation was stopped by rapid filtration of the incubation mixture over GF/B filters, pre-wetted with 0.1% polyethyleneamine, using a Filtermate196 harvester (Packard, Meriden, Conn.). Filters were rinsed extensively with ice-cold buffer and radioactivity on the filters was counted in a Topcount liquid scintillation counter (Packard, Meriden, Conn.). Data were expressed as cpm. Imipramine (at 1 μM final concentration) was used to determine the non-specific binding.
as §4

T3 sequence (P31645 whole entry): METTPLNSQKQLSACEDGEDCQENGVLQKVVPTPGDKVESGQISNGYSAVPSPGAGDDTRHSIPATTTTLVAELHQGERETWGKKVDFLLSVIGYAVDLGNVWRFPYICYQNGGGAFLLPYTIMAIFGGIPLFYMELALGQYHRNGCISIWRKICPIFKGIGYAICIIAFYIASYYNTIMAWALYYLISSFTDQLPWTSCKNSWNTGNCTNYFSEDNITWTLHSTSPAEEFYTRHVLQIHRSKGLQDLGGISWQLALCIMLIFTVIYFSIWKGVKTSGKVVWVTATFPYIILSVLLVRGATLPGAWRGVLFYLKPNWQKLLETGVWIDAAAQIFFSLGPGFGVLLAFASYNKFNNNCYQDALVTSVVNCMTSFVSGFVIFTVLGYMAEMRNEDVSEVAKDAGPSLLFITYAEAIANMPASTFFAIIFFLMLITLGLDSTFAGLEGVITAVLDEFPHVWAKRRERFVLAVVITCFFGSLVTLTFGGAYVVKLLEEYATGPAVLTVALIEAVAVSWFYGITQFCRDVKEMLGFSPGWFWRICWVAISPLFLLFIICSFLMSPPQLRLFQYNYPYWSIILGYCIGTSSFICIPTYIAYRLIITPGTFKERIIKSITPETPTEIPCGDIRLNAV

| IC50 [1] [nM] | IC50 [2] [nM] | IC50 [3] [nM] | h-α2C pIC50 [1] | h-α2A pIC50 [2] | h-5HTT pIC50 [3] | Compound |
| --- | --- | --- | --- | --- | --- | --- |
| 5.01 | 100 | 398 | – | – | – | C/C(=C\c1ccccc1)CN1CCC(Nc2nccn(CCCN(Cc3ccccc3)Cc3ccccc3)c2=O)CC1 [1-71] |
| 3.16 | 126 | 1580 | – | – | – | C/C(=C\c1ccccc1)CN1CCC(Nc2nccn(CCCNC(=O)c3ccccc3)c2=O)CC1 [1-72] |
| – | – | – | 8.3 | 6.7 | 7.1 | C/C(=C\c1ccccc1)CN1CCC(Nc2nccn(-c3ccc(CNC(=O)c4ccc(F)cc4)cc3)c2=O)CC1 [1-78] |
| 25.1 | 200 | 200 | – | – | – | C/C(=C\c1ccccc1)CN1CCC(Nc2nccn(-c3ccc(NC(=O)Cc4ccccc4)cc3)c2=O)CC1 [1-81] |
| 10 | 100 | 1260 | – | – | – | C/C(=C\c1ccccc1)CN1CCC(Nc2nccn(CCCN(C)CC(=O)c3ccccc3)c2=O)CC1 [1-84] |
| 15.8 | 158 | 1000 | – | – | – | C/C(=C\c1ccccc1)CN1CCC(Nc2nccn(CCCN(Cc3ccccc3)C(=O)CC3CCCC3)c2=O)CC1 [1-86] |
| 6.31 | 100 | 1260 | – | – | – | C/C(=C\c1ccccc1)CN1CCC(Nc2nccn(CCCN(C)C(=O)OC(C)(C)C)c2=O)CC1 [1-92] |
| 3.98 | 158 | 2510 | – | – | – | COC(=O)CCNC(=O)Cn1ccnc(NC2CCN(C/C(C)=C/c3ccccc3)CC2)c1=O [1-94] |
| 10 | 126 | 2510 | – | – | – | COC(=O)CN(C)C(=O)Cn1ccnc(NC2CCN(C/C(C)=C/c3ccccc3)CC2)c1=O [1-97] |
| – | – | – | 8.9 | 7.5 | 6.0 | COC(=O)CN(C)Cc1cccc(-n2ccnc(NC3CCN(C/C(C)=C/c4ccccc4)CC3)c2=O)c1 [1-98] |

Further lines, the compound ahead of its results:

| Compound | IC50 [1] [nM] | IC50 [2] [nM] | IC50 [3] [nM] | h-α2C pIC50 [1] | h-α2A pIC50 [2] | h-5HTT pIC50 [3] |
| --- | --- | --- | --- | --- | --- | --- |
| C/C(=C\c1ccccc1)CN1CCC(Nc2nccn(CC(=O)N(Cc3ccccc3)c3ccccc3)c2=O)CC1 [1-69] | 39.8 | 158 | 794 | – | – | – |
| C/C(=C\c1ccccc1)CN1CCC(Nc2nccn(-c3cccc(N(Cc4ccccc4)c4ccccc4)c3)c2=O)CC1 [1-70] | 20 | 31.6 | 158 | – | – | – |
| C/C(=C\c1ccccc1)CN1CCC(Nc2nccn(Cc3ccc(CNC(=O)c4ccccc4)cc3)c2=O)CC1 [1-73] | 31.6 | 158 | 316 | – | – | – |
| C/C(=C\c1ccccc1)CN1CCC(Nc2nccn(CCCN(C)C(=O)c3ccccc3)c2=O)CC1 [1-74] | 10 | 251 | 3160 | – | – | – |
| C/C(=C\c1ccccc1)CN1CCC(Nc2nccn(Cc3ccc(CNC(=O)c4ccc(C#N)cc4)cc3)c2=O)CC1 [1-75] | 50.1 | 126 | 200 | – | – | – |
| C/C(=C\c1ccccc1)CN1CCC(Nc2nccn(-c3cccc(NC(=O)c4cccc(F)c4)c3)c2=O)CC1 [1-76] | 31.6 | 20 | 126 | – | – | – |
| C/C(=C\c1ccccc1)CN1CCC(Nc2nccn(-c3ccc(NC(=O)c4cccc(F)c4)cc3)c2=O)CC1 [1-77] | 15.8 | 126 | 251 | – | – | – |
| C/C(=C\c1ccccc1)CN1CCC(Nc2nccn(CCCN(C)C(=O)c3ccc(F)cc3)c2=O)CC1 [1-79] | 39.8 | 2000 | > 10000 | – | – | – |
| C/C(=C\c1ccccc1)CN1CCC(Nc2nccn(Cc3ccc(CNC(=O)Cc4ccccc4)cc3)c2=O)CC1 [1-82] | 25.1 | 79.4 | 251 | – | – | – |
| CCCC(=O)N(CCCn1ccnc(NC2CCN(C/C(C)=C/c3ccccc3)CC2)c1=O)Cc1ccccc1 [1-85] | 10 | 158 | 1260 | – | – | – |
| C/C(=C\c1ccccc1)CN1CCC(Nc2nccn(CCCN(Cc3ccccc3)C(=O)c3ccccc3)c2=O)CC1 [1-87] | 12.6 | 200 | 1580 | – | – | – |
| C/C(=C\c1ccccc1)CN1CCC(Nc2nccn(CCCN(C(=O)Cc3ccccc3)c3ccccc3)c2=O)CC1 [1-88] | 12.6 | 126 | 631 | – | – | – |
| C/C(=C\c1ccccc1)CN1CCC(Nc2nccn(CCCN(Cc3ccccc3)C(=O)Cc3ccccc3)c2=O)CC1 [1-89] | 12.6 | 200 | 794 | – | – | – |
| C/C(=C\c1ccccc1)CN1CCC(Nc2nccn(CCCN(CC(=O)c3ccccc3)Cc3ccccc3)c2=O)CC1 [1-90] | 2 | 126 | 631 | – | – | – |
| C/C(=C\c1ccccc1)CN1CCC(Nc2nccn(-c3ccc(CNC(=O)OC(C)(C)C)cc3)c2=O)CC1 [1-91] | – | – | – | 7.7 | 6.5 | 6.1 |
| COCC(=O)NCc1ccc(Cn2ccnc(NC3CCN(C/C(C)=C/c4ccccc4)CC3)c2=O)cc1 [1-93] | 50.1 | 158 | 1260 | – | – | – |
| COC(=O)CCNCc1cccc(-n2ccnc(NC3CCN(C/C(C)=C/c4ccccc4)CC3)c2=O)c1 [1-95] | – | – | – | 8.9 | 7.6 | 5.9 |
| COC(=O)CCNCc1ccc(-n2ccnc(NC3CCN(C/C(C)=C/c4ccccc4)CC3)c2=O)cc1 [1-96] | – | – | – | 8.6 | 7.1 | 6.0 |
| COC(=O)CN(C)Cc1ccc(-n2ccnc(NC3CCN(C/C(C)=C/c4ccccc4)CC3)c2=O)cc1 [1-99] | 5.01 | 79.4 | 1000 | – | – | – |
| COC(=O)CC(=O)NCc1ccc(Cn2ccnc(NC3CCN(C/C(C)=C/c4ccccc4)CC3)c2=O)cc1 [1-100] | 25.1 | 126 | 1000 | – | – | – |
| CCOC(=O)CN(Cc1ccccc1)C(=O)Cn1ccnc(NC2CCN(C/C(C)=C/c3ccccc3)CC2)c1=O [1-101] | 6.31 | 126 | 1580 | – | – | – |
| C/C(=C\c1ccccc1)CN1CCC(Nc2nccn(CC(=O)NCCN(C)C)c2=O)CC1 [1-102] | 2 | 31.6 | 3160 | – | – | – |
| C/C(=C\c1ccccc1)CN1CCC(Nc2nccn(Cc3cccc(NCCN(C)C)c3)c2=O)CC1 [1-103] | 3.16 | 25.1 | 200 | – | – | – |
